Several values for one entry are separate records, joined by “and”; a condition that tells them apart may be missing. Equal values may be shown once.
Legend:
[1] = Gemcitabine plasma pharmacokinetics in Slc28a1+/+ and Slc28a1-/- mice; details: for C0: C0, dFdU in plasma; for MRT last: MRTlast
Method: To collect blood, a 5 mm lancet was used to apply pressure to the submandibular vein and release blood flow. For retro-orbital collection, mice were anesthetized with 3% isoflurane in oxygen, and the blood was collected directly into heparinized capillary tubes by applying slight pressure to the medial canthus of the eye. Cardiac puncture was performed as the final collection method by first euthanizing the mice in a CO2 chamber and immediately performing posterior cardiac puncture by inserting a 27 G needle with a 1 ml syringe attachment into the heart. Once blood collection was completed, gentle pressure was applied to the blood collection area using gauze to stop the bleeding. Thirty microliters of blood was collected into heparinized capillary tubes at each time point, transferred into prelabeled 0.5 ml microcentrifuge tubes containing THU (10 µg/ml; final concentration), and immediately processed and snap-frozen following procedures outlined in the “Gemcitabine plasma pharmacokinetics” methods section.
Gemcitabine and dFdU plasma concentrations were measured using a modified version of our previously published UHPLC–MS/MS method for nucleosides[74] […] Noncompartmental pharmacokinetic parameters (Cmax, Tmax, AUC, CL, T1/2, etc.) were calculated using WinNonlin 6.2 software (Pharsight; Mountain View, CA). […] The Cmax and Tmax were obtained from the concentration-time curve. The AUC was calculated according to the linear trapezoidal rule up to the last time point with a measurable concentration of the analyte of interest. Significant differences between Slc28a1^+/+ and Slc28a1^−/− mouse pharmacokinetic parameters (p < 0.05) were evaluated with an unpaired two-sided Student’s t-test.
The resulting supernatant was evaporated to dryness in a SpeedVac, and the remaining residue was reconstituted in mobile phase A for subsequent analysis. […] Subsequent processing was identical to that for the plasma and urine samples.
Briefly, the analysis was performed on an Imtakt Schzero SM C18 column, 2.1 × 100 mm, 3.0 µm particle size. The eluents used consisted of mobile phase A consisting of 50 mM ammonium formate:50 mM ammonium hydroxide (9:1, v/v) (pH = 8.6) and mobile phase B consisting of 50 mM ammonium formate:50 mM ammonium hydroxide (9:1, v/v):ACN (80:20, v/v) (pH = 8.6). […] The injection volume was 10 μL, and the autosampler temperature was set at 4 °C throughout the analysis.
The Waters Triple Quadrupole Mass Spectrometer with an ESI source was operated in negative and positive ion mode at a spray voltage of 2.5 kV, capillary temperature of 150 °C, and vaporizer temperature of 250 °C. Compound optimization was performed manually using the MassLynx 4.1 Software AutoTune Wizard (Waters, Milford, MA) by infusion into the mass spectrometer using a T-connector. […] Analyze concentrations were determined and analyzed using MassLynx Mass Spectrometry Software (Waters; Milford, MA).

[2] = Gemcitabine urine pharmacokinetics (renal excretion) in Slc28a1+/+ and Slc28a1-/- mice; details: Figure 5 G, H, I, individual mice; for concentration at 5 min / concentration at 10 min / concentration at 15 min / concentration at 30 min / concentration at 60 min / concentration at 120 min / concentration at 240 min: mouse, urine, intravenous, 50 mg/kg, Cp (dFdU)
Method: THU was added to the mouse urine samples upon collection and frozen until analysis. […] Five microliters of the diluted samples were transferred to a 96-well autosampler plate then 10 µL of internal standard mixture was added and mixed. […] The plate was then transferred to the 4 °C autosampler for analysis.
The chromatographic separation was performed on a Thermo Accucore aQ 2.6 µm, 100 ×2.1 mm column at 30 °C using a gradient with a 10 µL injection volume. The mobiles phases were 1 mM ammonium acetate in deionized water pH 6.8 and acetonitrile. The total run time was 5.5 min. […] The LC–MS/MS analysis was conducted on a Thermo Vanquish UHPLC with a TSQ Quantiva mass spectrometer equipped with an electrospray ionization source.

[3] = dFdU in plasma, WT mice, iv gemcitabine 50mg/kg, per mouse
[4] = female, Slc28a1-/- (CNT1 knockout; background strain not stated), mouse, plasma, intravenous, 50 mg/kg, Cp (dFdU), KO mice, single iv gemcitabine 50mg/kg
[5] = female, mouse, plasma, intravenous, 50 mg/kg, Cp (dFdU), WT mice, single iv gemcitabine 50mg/kg

With `O=c1ccn([C@@H]2O[C@H](CO)[C@@H](O)C2(F)F)c(=O)[nH]1` [dFdU, 2′,2′-difluorodeoxyuridine] as the compound, how does the MRTINF_obs [1, 3] read?
The MRTINF_obs was 88.1868 min and 26.3212 min and 14.3667 min and 30.2266 min.

And the MRTINF_pred [1, 3]?
The MRTINF_pred was 88.315 min and 25.0092 min and 14.2143 min and 30.2855 min.

And the MRTlast [1, 3]?
Its MRTlast is 7.307 min and 11.7511 min and 10.7753 min and 12.973 min and 10.8216 min.

What about the Tlast [1, 3] of the same compound?
The Tlast was 15 min and 30 min.

And the Tmax [1, 3]?
Its Tmax is 10 min and 5 min and 15 min.

And the Vss_obs [1, 3]?
Its Vss_obs is 108.907 L/kg and 105.643 L/kg and 83.3357 L/kg and 80.1423 L/kg.

And the Vss_pred [1, 3]?
The Vss_pred was 108.137 L/kg and 105.015 L/kg and 82.9031 L/kg and 80.1342 L/kg.

And the Vz_obs [1, 3]?
The Vz_obs was 108.979 L/kg and 99.2063 L/kg and 70.6936 L/kg and 76.9343 L/kg.

And the Vz_pred [1, 3]?
Its Vz_pred is 108.051 L/kg and 103.79 L/kg and 71.0811 L/kg and 76.7768 L/kg.

What about the concentration at 120 min [1, 4] of the same compound?
Its concentration at 120 min is 0 ng/mL.

And the concentration at 240 min [1, 4]?
Its concentration at 240 min is 0 ng/mL.

And the concentration at 5 min ([1]; female, mouse, plasma, intravenous, 50 mg/kg, Cp (dFdU), KO mice, single iv gemcitabine 50mg/kg, 5 min)?
The concentration at 5 min was 400 ng/mL.

And the concentration at 60 min ([1]; female, mouse, plasma, intravenous, 50 mg/kg, Cp (dFdU), KO mice, single iv gemcitabine 50mg/kg)?
Its concentration at 60 min is 0 ng/mL.

And the concentration at 60 min [1, 5]?
Its concentration at 60 min is 0 ng/mL.

And the concentration at 120 min [1, 5]?
Its concentration at 120 min is 0 ng/mL.

And the concentration at 240 min [1, 5]?
The concentration at 240 min was 0 ng/mL.

What about the AUC(0-inf) ([1]; female, mouse, plasma, iv, 50 mg/kg, AUCINF_obs, dFdU in plasma, KO mice, iv gemcitabine 50mg/kg, per mouse) of the same compound?
Its AUC(0-inf) is 121 ng·h/mL.

What about the AUC(0-inf) ([1]; female, mouse, plasma, iv, 50 mg/kg, AUCINF_pred, dFdU in plasma, KO mice, iv gemcitabine 50mg/kg, per mouse) of the same compound?
Its AUC(0-inf) is 121 ng·h/mL.

What about the C0 ([1]; female, mouse, plasma, iv, 50 mg/kg, KO mice, iv gemcitabine 50mg/kg, per mouse) of the same compound?
Its C0 is 408 ng/mL.

What about the C0 ([1]; female, mouse, plasma, iv, 50 mg/kg, WT mice, iv gemcitabine 50mg/kg, per mouse) of the same compound?
Its C0 is 445 ng/mL.

What about the Cmax ([1]; female, mouse, plasma, iv, 50 mg/kg, Slc28a1+/+ mice, plasma, single i.v. dFdC 50 mg/kg) of the same compound?
The Cmax was 453 ± 7.35 ng/mL.

What about the Cmax ([1]; female, mouse, plasma, iv, 50 mg/kg, Slc28a1-/- mice, single i.v. dFdC 50 mg/kg) of the same compound?
The Cmax was 386 ± 8.42 ng/mL.

What about the k el ([1]; female, mouse, plasma, iv, 50 mg/kg, Lambda_z, dFdU in plasma, KO mice, iv gemcitabine 50mg/kg, per mouse) of the same compound?
The k el was 0.00206 s⁻¹.

What about the MRT inf ([1]; female, mouse, plasma, iv, 50 mg/kg, MRTINF_obs, dFdU in plasma, KO mice, iv gemcitabine 50mg/kg, per mouse) of the same compound?
Its MRT inf is 10.1 min.

And the MRT inf ([1]; female, mouse, plasma, iv, 50 mg/kg, MRTINF_pred, dFdU in plasma, KO mice, iv gemcitabine 50mg/kg, per mouse)?
Its MRT inf is 10.1 min.

What about the MRT last ([1]; female, mouse, plasma, iv, 50 mg/kg, dFdU in plasma, KO mice, iv gemcitabine 50mg/kg, per mouse) of the same compound?
The MRT last was 9.07 min.

What about the MRT last ([1]; female, mouse, plasma, iv, 50 mg/kg, dFdU in plasma, WT mice, iv gemcitabine 50mg/kg, per mouse) of the same compound?
Its MRT last is 8.1 min.

And the Tmax ([1]; female, mouse, plasma, iv, 50 mg/kg, Tmax, Slc28a1+/+ mice, plasma, single i.v. dFdC 50 mg/kg)?
Its Tmax is 240 min.

What about the Tmax ([1]; female, mouse, plasma, iv, 50 mg/kg, Tmax, Slc28a1-/- mice, single i.v. dFdC 50 mg/kg) of the same compound?
Its Tmax is 240 min.

And the “Cp (dFdU)” value ([1]; plasma, KO mice, single iv gemcitabine 50mg/kg, 5 min)?
The value was 397.109 ng/mL and 353.736 ng/mL and 215.606 ng/mL and 287.027 ng/mL and 238.121 ng/mL.

And the “Cp (dFdU)” value ([2]; KO mice, 5 Minutes)?
The value was 317.288 ng/mL and 341.288 ng/mL and 338.288 ng/mL and 263.288 ng/mL.

What about the “Cp (dFdU)” value ([2]; KO mice, 10 Minutes) of the same compound?
Its value is 227.479 ng/mL and 269.479 ng/mL and 242.479 ng/mL and 273.479 ng/mL and 275.479 ng/mL.

What about the “Cp (dFdU)” value ([2]; KO mice, 15 Minutes) of the same compound?
The value was 331.541 ng/mL and 373.541 ng/mL and 346.541 ng/mL and 377.541 ng/mL and 379.541 ng/mL.

What about the “Cp (dFdU)” value ([2]; KO mice, 30 Minutes) of the same compound?
The value was 322.048 ng/mL and 364.048 ng/mL and 337.048 ng/mL and 368.048 ng/mL and 370.048 ng/mL.

And the “Cp (dFdU)” value ([2]; KO mice, 60 Minutes)?
Its value is 338.37 ng/mL and 380.37 ng/mL and 353.37 ng/mL and 384.37 ng/mL and 386.37 ng/mL.

What about the “Cp (dFdU)” value ([2]; KO mice, 120 Minutes) of the same compound?
Its value is 342.398 ng/mL and 384.398 ng/mL and 357.398 ng/mL and 388.398 ng/mL and 390.398 ng/mL.

What about the “Cp (dFdU)” value ([2]; KO mice, 240 Minutes) of the same compound?
The value was 359.089 ng/mL and 401.089 ng/mL and 374.089 ng/mL and 405.089 ng/mL and 407.089 ng/mL.

What about the “Cp (dFdU)” value ([2]; WT mice, 5 Minutes) of the same compound?
Its value is 390.036 ng/mL and 363.036 ng/mL and 387.036 ng/mL and 384.036 ng/mL and 309.036 ng/mL.

What about the “Cp (dFdU)” value ([2]; WT mice, 10 Minutes) of the same compound?
Its value is 317.618 ng/mL and 359.618 ng/mL and 332.618 ng/mL and 363.618 ng/mL and 365.618 ng/mL.

What about the “Cp (dFdU)” value ([2]; WT mice, 15 Minutes) of the same compound?
The value was 319.343 ng/mL and 361.343 ng/mL and 334.343 ng/mL and 365.343 ng/mL and 367.343 ng/mL.

What about the “Cp (dFdU)” value ([2]; WT mice, 30 Minutes) of the same compound?
The value was 316.265 ng/mL and 358.265 ng/mL and 331.265 ng/mL and 362.265 ng/mL and 364.265 ng/mL.

And the “Cp (dFdU)” value ([2]; WT mice, 60 Minutes)?
The value was 316.849 ng/mL and 358.849 ng/mL and 331.849 ng/mL and 362.849 ng/mL and 364.849 ng/mL.

What about the “Cp (dFdU)” value ([2]; WT mice, 120 Minutes) of the same compound?
Its value is 320.376 ng/mL and 362.376 ng/mL and 335.376 ng/mL and 366.376 ng/mL and 368.376 ng/mL.

What about the “Cp (dFdU)” value ([2]; WT mice, 240 Minutes) of the same compound?
The value was 471.043 ng/mL and 459.043 ng/mL and 432.043 ng/mL and 463.043 ng/mL and 465.043 ng/mL.

And the concentration at 5 min ([2]; KO mice, 5 Minutes)?
The concentration at 5 min was 344 ng/mL.

What about the concentration at 10 min ([2]; KO mice, 10 Minutes) of the same compound?
The concentration at 10 min was 239 ng/mL.

And the concentration at 15 min ([2]; KO mice, 15 Minutes)?
Its concentration at 15 min is 344 ng/mL.

And the concentration at 30 min ([2]; KO mice, 30 Minutes)?
Its concentration at 30 min is 334 ng/mL.

And the concentration at 60 min ([2]; KO mice, 60 Minutes)?
Its concentration at 60 min is 350 ng/mL.

And the concentration at 120 min ([2]; KO mice, 120 Minutes)?
Its concentration at 120 min is 354 ng/mL.

And the concentration at 240 min ([2]; KO mice, 240 Minutes)?
Its concentration at 240 min is 371 ng/mL.

And the concentration at 5 min ([2]; WT mice, 5 Minutes)?
Its concentration at 5 min is 328 ng/mL.

And the concentration at 10 min ([2]; WT mice, 10 Minutes)?
Its concentration at 10 min is 330 ng/mL.

What about the concentration at 15 min ([2]; WT mice, 15 Minutes) of the same compound?
The concentration at 15 min was 331 ng/mL.

And the concentration at 30 min ([2]; WT mice, 30 Minutes)?
The concentration at 30 min was 328 ng/mL.

What about the concentration at 60 min ([2]; WT mice, 60 Minutes) of the same compound?
The concentration at 60 min was 329 ng/mL.

And the concentration at 120 min ([2]; WT mice, 120 Minutes)?
The concentration at 120 min was 332 ng/mL.

And the concentration at 240 min ([2]; WT mice, 240 Minutes)?
The concentration at 240 min was 429 ng/mL.

Reference: article PMC10235067, “Increased renal elimination of endogenous and synthetic pyrimidine nucleosides in concentrative nucleoside transporter 1 deficient mice” (Nature Communications, 2023)
